{"source": "ChEMBL document CHEMBL1201862", "about": "“PubChem BioAssay data set” (2004)", "key": {"[1]": {"test": "cells", "type": "functional"}, "[2]": {"test": "AlphaScreen signal interference compounds, dose response, artefact control for ARNT-TACC3 interaction inhibitor project, biochemical, luminescence, cherry-pick (AID 651705);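 note: AlphaScreen bead proximity signal that flags compounds interfering with the detection technology; potency reflects signal decrease which marks the compound as an assay artifact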", "type": "functional"}, "[3]": {"test": "THP-1 cell cytotoxicity, dose response, cytotoxicity control for non-replicating M. tuberculosis project (AID 489025)", "type": "functional"}, "[4]": {"molecular_target": "Nonstructural protein 1 (Influenza A virus, UniProt Q194T2)", "sequence (Q194T2 whole entry)": "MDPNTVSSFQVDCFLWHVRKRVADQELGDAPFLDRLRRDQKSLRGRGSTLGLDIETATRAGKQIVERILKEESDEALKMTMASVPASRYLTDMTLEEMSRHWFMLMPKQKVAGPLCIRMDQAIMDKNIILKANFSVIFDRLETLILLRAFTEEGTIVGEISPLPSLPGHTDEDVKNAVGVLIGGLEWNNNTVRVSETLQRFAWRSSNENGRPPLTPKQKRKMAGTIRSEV", "type": "functional, Influenza A virus (A/California/07/2009(H1N1))"}, "[5]": {"test": "Vero E6 cell cytotoxicity, dose response, cytotoxicity control for non-replicating M. tuberculosis project, secondary assay (AID 492998)", "type": "functional, VeroE6", "settings": "Vero C1008"}, "[6]": {"test": "HepG2 cell cytotoxicity, dose response, cytotoxicity control for non-replicating M. tuberculosis project (AID 489018)", "type": "functional", "settings": "Mycobacterium tuberculosis"}, "[7]": {"test": "microbe, parasite or virus in culture", "type": "functional", "settings": "Mycobacterium tuberculosis"}, "[8]": {"molecular_target": "Protein Rev (Human immunodeficiency virus type 1 group M subtype B (isolate HXB2)(HIV-1), UniProt P04618)", "sequence (P04618 whole entry)": "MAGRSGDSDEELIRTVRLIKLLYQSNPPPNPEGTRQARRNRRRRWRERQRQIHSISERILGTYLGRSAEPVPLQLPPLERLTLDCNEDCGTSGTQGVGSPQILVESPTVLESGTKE", "test": "inhibitors of Rev binding to RRE RNA, dose response, biochemical, fluorescence polarization, HIV-1 (AID 434976)", "set-up": "species or system Human immunodeficiency virus 1"}, "[9]": {"molecular_target": "T1, Polyadenylate-binding protein 1 (Homo sapiens, UniProt P11940)", "T1 sequence (P11940 whole entry)": "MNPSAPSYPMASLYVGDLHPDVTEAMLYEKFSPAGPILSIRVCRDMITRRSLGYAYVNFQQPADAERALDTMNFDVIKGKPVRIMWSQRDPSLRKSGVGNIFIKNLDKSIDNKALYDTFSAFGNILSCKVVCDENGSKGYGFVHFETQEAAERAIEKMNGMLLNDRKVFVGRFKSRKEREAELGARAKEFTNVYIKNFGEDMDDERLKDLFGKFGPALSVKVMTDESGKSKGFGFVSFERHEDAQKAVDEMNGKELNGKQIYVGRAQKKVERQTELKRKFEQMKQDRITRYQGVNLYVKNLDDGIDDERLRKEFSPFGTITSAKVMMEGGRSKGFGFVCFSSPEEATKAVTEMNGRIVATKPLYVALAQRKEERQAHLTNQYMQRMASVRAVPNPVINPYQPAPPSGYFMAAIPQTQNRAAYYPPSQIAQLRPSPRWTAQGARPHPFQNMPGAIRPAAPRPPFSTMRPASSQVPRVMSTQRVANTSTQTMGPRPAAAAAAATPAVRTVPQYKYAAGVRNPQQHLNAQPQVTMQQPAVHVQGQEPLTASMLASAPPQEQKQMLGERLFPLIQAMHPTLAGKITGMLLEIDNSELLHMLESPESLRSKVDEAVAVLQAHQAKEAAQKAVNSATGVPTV", "test": "PABP1 MLLE–PAM2 interaction inhibitors, dose response, miRNA deadenylation inhibitor project, biochemical, fluorescence polarization, Cy5-PAM2 peptide, secondary (AID 602260)", "type": "functional", "settings": "read-out: IC50_Mean"}, "[10]": {"molecular_target": "T2, RNA-binding protein pos-1 (Caenorhabditis elegans, UniProt G5EF15)", "T2 sequence (G5EF15 whole entry)": "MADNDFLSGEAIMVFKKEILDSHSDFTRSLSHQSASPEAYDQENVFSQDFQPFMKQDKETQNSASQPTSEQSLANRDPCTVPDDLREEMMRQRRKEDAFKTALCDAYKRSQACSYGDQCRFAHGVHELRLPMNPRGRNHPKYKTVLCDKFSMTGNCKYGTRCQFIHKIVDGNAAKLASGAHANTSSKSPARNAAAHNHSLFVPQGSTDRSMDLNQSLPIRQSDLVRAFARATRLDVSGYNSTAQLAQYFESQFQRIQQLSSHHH", "test": "inhibitors of POS-1/mex-3 RNA binding, dose response, biochemical, fluorescence polarization (AID 1964);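 note: purified POS-1 fused to maltose binding protein made in E. coli; potency of compounds blocking POS-1 binding to fluorescent RNA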"}, "[11]": {"molecular_target": "T1, Polyadenylate-binding protein 1", "test": "PABP1 MLLE–PAM2 binding inhibitor potency, dose response, biochemical, fluorescence polarization, FITC-PAM2 peptide (AID 602259)", "type": "functional", "settings": "read-out: IC50_Mean"}, "[12]": {"molecular_target": "T3, Zinc finger protein mex-5 (Caenorhabditis elegans, UniProt Q9XUB2)", "T3 sequence (Q9XUB2 whole entry)": "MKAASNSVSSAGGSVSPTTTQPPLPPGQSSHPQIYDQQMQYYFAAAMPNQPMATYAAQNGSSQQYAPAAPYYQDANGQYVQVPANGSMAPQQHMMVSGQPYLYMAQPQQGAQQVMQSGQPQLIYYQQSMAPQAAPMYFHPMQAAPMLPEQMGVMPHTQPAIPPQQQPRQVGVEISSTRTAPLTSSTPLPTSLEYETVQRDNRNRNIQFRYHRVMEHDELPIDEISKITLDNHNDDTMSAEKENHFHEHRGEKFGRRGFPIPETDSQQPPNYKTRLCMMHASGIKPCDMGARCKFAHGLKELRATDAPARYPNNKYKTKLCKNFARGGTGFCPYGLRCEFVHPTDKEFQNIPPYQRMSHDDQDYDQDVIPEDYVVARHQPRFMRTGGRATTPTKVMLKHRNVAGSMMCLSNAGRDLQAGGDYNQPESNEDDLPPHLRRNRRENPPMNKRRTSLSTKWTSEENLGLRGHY", "test": "MEX-5/TCR-2 RNA interaction inhibitors, dose response, biochemical, C. elegans, fluorescence polarization (AID 1960)"}, "[13]": {"molecular_target": "Female germline-specific tumor suppressor gld-1 (Caenorhabditis elegans, UniProt Q17339)", "sequence (Q17339 whole entry)": "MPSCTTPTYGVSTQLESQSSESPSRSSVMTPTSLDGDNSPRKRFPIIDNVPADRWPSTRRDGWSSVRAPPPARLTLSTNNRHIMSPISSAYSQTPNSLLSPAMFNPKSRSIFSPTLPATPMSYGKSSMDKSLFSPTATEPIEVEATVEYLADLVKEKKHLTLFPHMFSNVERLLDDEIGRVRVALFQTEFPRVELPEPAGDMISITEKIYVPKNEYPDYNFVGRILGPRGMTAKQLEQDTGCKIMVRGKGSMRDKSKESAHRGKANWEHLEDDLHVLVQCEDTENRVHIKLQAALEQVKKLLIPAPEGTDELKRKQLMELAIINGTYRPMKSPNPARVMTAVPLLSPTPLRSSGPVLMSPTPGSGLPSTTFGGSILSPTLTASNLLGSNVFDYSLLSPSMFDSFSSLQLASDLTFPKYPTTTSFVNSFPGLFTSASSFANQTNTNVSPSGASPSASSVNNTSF", "test": "inhibitors of GLD-1 binding to TGE RNA, dose response, biochemical, fluorescence polarization, C. elegans (AID 2802);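 note: fluorescence polarization of labeled TGE RNA bound by purified gld-1 protein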"}, "[14]": {"test": "LGR2 antagonists, dose response, cell-based, HEK293, CRE-luciferase reporter, cherry pick, set 2 (AID 743343);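 note: transfected cells were stimulated with diluted bursicon conditioned medium after compound addition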", "type": "functional"}, "[15]": {"molecular_target": "T4, Nuclear receptor subfamily 0 group B member 1 (Homo sapiens, UniProt P51843)", "T4 sequence (P51843 whole entry)": "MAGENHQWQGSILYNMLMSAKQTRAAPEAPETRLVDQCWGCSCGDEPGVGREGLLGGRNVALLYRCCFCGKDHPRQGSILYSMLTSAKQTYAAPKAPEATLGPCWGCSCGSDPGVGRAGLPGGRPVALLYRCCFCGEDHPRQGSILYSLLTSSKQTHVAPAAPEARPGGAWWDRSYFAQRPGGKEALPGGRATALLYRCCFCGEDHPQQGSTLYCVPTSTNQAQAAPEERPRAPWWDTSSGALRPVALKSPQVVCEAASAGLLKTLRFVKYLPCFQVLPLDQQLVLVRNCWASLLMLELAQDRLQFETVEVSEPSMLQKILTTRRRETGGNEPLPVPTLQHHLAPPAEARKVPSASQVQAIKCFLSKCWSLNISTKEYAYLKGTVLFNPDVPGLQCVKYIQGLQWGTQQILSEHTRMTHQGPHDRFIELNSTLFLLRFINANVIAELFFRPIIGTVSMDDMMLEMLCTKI", "type": "functional, cell-based"}, "[16]": {"test": "cells", "type": "functional, cell-based"}, "[17]": {"molecular_target": "T5, DNA dC->dU-editing enzyme APOBEC-3A (Homo sapiens, UniProt P31941)", "T5 sequence (P31941 whole entry)": "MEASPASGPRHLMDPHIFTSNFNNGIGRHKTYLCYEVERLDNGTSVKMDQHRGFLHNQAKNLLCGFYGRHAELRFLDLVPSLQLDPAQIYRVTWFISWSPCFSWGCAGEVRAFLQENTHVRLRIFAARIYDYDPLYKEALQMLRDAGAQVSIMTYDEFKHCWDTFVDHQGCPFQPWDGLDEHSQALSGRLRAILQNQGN", "test": "Dose Response confirmation of small molecule APOBEC3A DNA Deaminase Inhibitors via a fluorescence-based single-stranded DNA deaminase assay. [Related pubchem assays (depositor defined):AID493011, AID493024]", "type": "functional"}, "[18]": {"test": "HepG2 cell cytotoxicity, dose response, cytotoxicity control, plate reader, cherry-pick, antagonist series (AID 743416)", "type": "functional, cell-based"}, "[19]": {"molecular_target": "T6, DNA dC->dU-editing enzyme APOBEC-3G (Homo sapiens, UniProt Q9HC16)", "T6 sequence (Q9HC16 whole entry)": "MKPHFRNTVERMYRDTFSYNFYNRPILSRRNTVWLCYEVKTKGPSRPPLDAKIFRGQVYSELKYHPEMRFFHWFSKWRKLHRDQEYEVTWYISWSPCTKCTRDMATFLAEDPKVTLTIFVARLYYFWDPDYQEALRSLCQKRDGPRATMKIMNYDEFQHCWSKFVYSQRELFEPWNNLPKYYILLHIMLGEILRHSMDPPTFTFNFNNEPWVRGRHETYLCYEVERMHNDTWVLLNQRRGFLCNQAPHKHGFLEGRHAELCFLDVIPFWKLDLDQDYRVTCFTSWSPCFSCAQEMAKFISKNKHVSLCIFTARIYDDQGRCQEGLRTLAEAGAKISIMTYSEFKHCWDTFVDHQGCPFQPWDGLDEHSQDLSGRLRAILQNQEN", "type": "functional"}, "[20]": {"test": "MC4R antagonists, dose response, counter-screen for LGR2 antagonist project, cell-based, plate reader, cherry pick (AID 743444);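 note: transfected HEK 293 cells stimulated with alpha-MSH peptide; potency of inhibitors of the alpha-MSH evoked signal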", "type": "functional"}, "[21]": {"molecular_target": "T7, Phosphomannomutase 2 (Homo sapiens, UniProt O15305)", "T7 sequence (O15305 whole entry)": "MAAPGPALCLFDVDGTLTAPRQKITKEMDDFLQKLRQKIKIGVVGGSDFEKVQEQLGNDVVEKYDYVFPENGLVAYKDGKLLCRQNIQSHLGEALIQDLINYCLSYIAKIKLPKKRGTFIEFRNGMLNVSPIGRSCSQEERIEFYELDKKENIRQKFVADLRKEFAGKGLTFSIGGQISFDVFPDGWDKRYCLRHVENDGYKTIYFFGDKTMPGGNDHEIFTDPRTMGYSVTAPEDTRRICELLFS", "test": "Counter screen SAR assay for PMM2 inhibitors via a fluorescence intensity assay. [Related pubchem assays (depositor defined):AID1545, AID1574]"}, "[22]": {"molecular_target": "Phosphoethanolamine/phosphocholine phosphatase (Homo sapiens, UniProt Q8TCT1)", "sequence (Q8TCT1 whole entry)": "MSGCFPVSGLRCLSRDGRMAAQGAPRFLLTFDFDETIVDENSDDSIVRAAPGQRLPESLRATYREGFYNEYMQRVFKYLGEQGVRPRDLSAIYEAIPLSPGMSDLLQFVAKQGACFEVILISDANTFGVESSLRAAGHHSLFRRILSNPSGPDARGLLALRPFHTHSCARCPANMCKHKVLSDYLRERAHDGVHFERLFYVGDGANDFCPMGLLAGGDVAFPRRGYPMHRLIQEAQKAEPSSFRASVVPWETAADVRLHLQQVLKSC", "test": "SAR assay for compounds that inhibit PHOSPHO1. [Related pubchem assays (depositor defined):AID1545, AID1565, AID1574]"}, "[23]": {"molecular_target": "T8, Mannose-6-phosphate isomerase (Homo sapiens, UniProt P34949)", "T8 sequence (P34949 whole entry)": "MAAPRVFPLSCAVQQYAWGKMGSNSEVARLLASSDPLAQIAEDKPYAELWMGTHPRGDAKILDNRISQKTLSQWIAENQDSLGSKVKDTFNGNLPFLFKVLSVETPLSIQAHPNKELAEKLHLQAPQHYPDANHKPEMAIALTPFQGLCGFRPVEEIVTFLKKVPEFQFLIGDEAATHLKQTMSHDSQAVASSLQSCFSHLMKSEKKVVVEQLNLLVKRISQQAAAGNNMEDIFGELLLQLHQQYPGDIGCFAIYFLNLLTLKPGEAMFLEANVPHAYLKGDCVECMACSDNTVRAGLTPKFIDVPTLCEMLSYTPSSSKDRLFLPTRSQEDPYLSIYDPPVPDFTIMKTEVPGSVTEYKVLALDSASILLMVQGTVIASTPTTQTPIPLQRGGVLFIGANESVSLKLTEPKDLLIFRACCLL", "test": "PMI enzyme inhibitors, confirmation, biochemical, fluorescence intensity (AID 1535)"}, "[24]": {"molecular_target": "T6, DNA dC->dU-editing enzyme APOBEC-3G", "test": "Dose Response confirmation of small molecule APOBEC3G DNA Deaminase Inhibitors via a fluorescence-based single-stranded DNA deaminase assay. [Related pubchem assays (depositor defined):AID493012, AID493028]", "type": "functional"}, "[25]": {"molecular_target": "T5, DNA dC->dU-editing enzyme APOBEC-3A", "test": "APOBEC3A DNA deaminase inhibitors, dose response, biochemical (AID 504722)", "type": "functional"}}, "note": "The source made the active and inactive calls.", "data": [{"smiles": "O=C(CCS(=O)(=O)c1ccc(F)cc1)Nc1nc(-c2ccccn2)cs1", "values": [{"measurement": "IC50", "setting": "[1]", "result": "6.21 µM (active)"}, {"measurement": "AC50", "setting": "[2]", "result": "99.2 µM (active)"}, {"measurement": "CC50", "setting": "[3]", "result": "23.6 µM (active)"}, {"measurement": "IC50", "setting": "[4]", "result": "21.5 µM (active)"}, {"measurement": "CC50", "setting": "[5]", "result": "12 µM (active)"}, {"measurement": "CC50", "setting": "[6]", "result": "> 20 µM (active)"}, {"measurement": "CC50", "setting": "[7]", "result": "21.1 µM (active)"}]}, {"smiles": "COc1ccc(NC(=O)Nc2cc(C)cc(C)c2)cn1", "values": [{"measurement": "IC50", "setting": "[8]", "result": "11.4 µM (not active)"}, {"measurement": "IC50", "setting": "[9]", "result": "> 66 µM (inactive)"}, {"measurement": "EC50", "setting": "[10]", "result": "186 µM (active)"}, {"measurement": "IC50", "setting": "[11]", "result": "21.8 µM (inactive)"}, {"measurement": "EC50", "setting": "[12]", "result": "27.4 µM (active)"}, {"measurement": "IC50", "setting": "[13]", "result": "7.15 µM (active)"}]}, {"smiles": "COc1ccc2sc(NC(=O)c3ccco3)nc2c1", "values": [{"measurement": "AC50", "setting": "[14]", "result": "7.49 µM (active)"}, {"measurement": "IC50", "setting": "[15]", "result": "> 67.5 µM (inactive)"}, {"measurement": "IC50", "setting": "[16]", "result": "> 67.5 µM (inactive)"}, {"measurement": "IC50", "setting": "[17]", "result": "17.3 µM (active)"}, {"measurement": "AC50", "setting": "[18]", "result": "> 52 µM (inactive)"}, {"measurement": "IC50", "setting": "[19]", "result": "10.3 µM (active)"}, {"measurement": "AC50", "setting": "[20]", "result": "8.55 µM (active)"}]}, {"smiles": "O=c1c2ccccc2sn1-c1cccc(C(F)(F)F)c1", "values": [{"measurement": "IC50", "setting": "[21]", "result": "> 100 µM (inactive)"}, {"measurement": "IC50", "setting": "[22]", "result": "11.6 µM (inactive)"}, {"measurement": "IC50", "setting": "[23]", "result": "23.7 µM (active)"}]}, {"smiles": "Fc1cccc(Cl)c1/C=N/n1c(S)nnc1-c1cccnc1", "values": [{"measurement": "IC50", "setting": "[24]", "result": "2.73 µM (active)"}, {"measurement": "IC50", "setting": "[25]", "result": "> 100 µM (inactive)"}]}]}
